Assays:
Ssal-KRED [1] = biological target: T1, Ssal-KRED (Sporobolomyces salmonicolor, UniProt Q9UUN9, F97W/L241M/M242W/Q245S); test: UV assay at […] nm, Michaelis-Menten fit; type: biochemical; conditions: apparent; NADP+/iPrOH as hydride donor; purified His-tagged enzyme; read-out: app. KM
T1 construct: N-terminal 6xHis-tag, pET28b(+), purified; recombinant from E. coli
T1 sequence (Q9UUN9 2-343 F97W/L241M/M242W/Q245S): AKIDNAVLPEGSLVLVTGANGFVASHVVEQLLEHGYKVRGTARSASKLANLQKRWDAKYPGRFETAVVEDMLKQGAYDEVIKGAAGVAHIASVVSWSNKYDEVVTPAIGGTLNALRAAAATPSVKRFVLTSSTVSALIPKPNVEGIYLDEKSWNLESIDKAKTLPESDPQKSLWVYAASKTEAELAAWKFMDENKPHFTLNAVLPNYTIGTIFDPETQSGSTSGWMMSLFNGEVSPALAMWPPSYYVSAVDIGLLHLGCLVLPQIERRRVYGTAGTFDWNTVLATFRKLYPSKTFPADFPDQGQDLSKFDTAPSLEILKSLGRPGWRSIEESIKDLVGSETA

Ssal-KRED [2] = biological target: T2, Ssal-KRED (Sporobolomyces salmonicolor, UniProt Q9UUN9, F97W/A238K/L241M/M242W/Q245S/L316M/T342M); test: UV assay at […] nm, Michaelis-Menten fit; type: biochemical; conditions: apparent; NADP+/iPrOH as hydride donor; purified His-tagged enzyme; read-out: app. KM
T2 construct: N-terminal 6xHis-tag, pET28b(+), purified; recombinant from E. coli
T2 sequence (Q9UUN9 2-343 F97W/A238K/L241M/M242W/Q245S/L316M/T342M): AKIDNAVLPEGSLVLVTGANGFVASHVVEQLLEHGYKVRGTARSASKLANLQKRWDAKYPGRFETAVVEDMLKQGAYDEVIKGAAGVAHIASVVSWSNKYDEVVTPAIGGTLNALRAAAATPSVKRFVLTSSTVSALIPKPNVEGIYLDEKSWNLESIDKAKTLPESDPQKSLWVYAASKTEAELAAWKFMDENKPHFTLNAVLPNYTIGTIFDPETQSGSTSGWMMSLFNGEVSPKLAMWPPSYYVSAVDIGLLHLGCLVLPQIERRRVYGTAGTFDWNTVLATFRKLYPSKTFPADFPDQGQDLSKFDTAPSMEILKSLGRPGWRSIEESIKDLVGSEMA

Ssal-KRED [3] = biological target: T3, Ssal-KRED (Sporobolomyces salmonicolor, UniProt Q9UUN9, F97W/T134V/S224A/A238K/L241M/M242W/Q245S/Y246G/L316M/T342M); test: UV assay at […] nm, Michaelis-Menten fit; type: biochemical; conditions: apparent; NADP+/iPrOH as hydride donor; purified His-tagged enzyme; read-out: app. KM
T3 construct: N-terminal 6xHis-tag, pET28b(+), purified; recombinant from E. coli
T3 sequence (Q9UUN9 2-343 F97W/T134V/S224A/A238K/L241M/M242W/Q245S/Y246G/L316M/T342M): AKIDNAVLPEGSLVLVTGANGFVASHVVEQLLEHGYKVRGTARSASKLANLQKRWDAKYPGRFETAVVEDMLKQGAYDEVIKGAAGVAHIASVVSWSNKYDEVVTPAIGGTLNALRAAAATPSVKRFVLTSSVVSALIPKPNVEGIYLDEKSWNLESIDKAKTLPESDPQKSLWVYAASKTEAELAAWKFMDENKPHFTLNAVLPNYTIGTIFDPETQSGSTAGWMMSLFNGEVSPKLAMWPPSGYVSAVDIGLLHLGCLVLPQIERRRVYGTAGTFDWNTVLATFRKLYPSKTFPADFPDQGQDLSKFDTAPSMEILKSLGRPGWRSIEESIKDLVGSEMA

Ssal-KRED [4] = biological target: T4, Ssal-KRED (Sporobolomyces salmonicolor, UniProt Q9UUN9, F97W/S224A/A238K/L241M/M242W/Q245S/Y246G/L316M/T342M); test: UV assay at […] nm, Michaelis-Menten fit; type: biochemical; conditions: apparent; NADP+/iPrOH as hydride donor; purified His-tagged enzyme; read-out: app. KM
T4 construct: N-terminal 6xHis-tag, pET28b(+), purified; recombinant from E. coli
T4 sequence (Q9UUN9 2-343 F97W/S224A/A238K/L241M/M242W/Q245S/Y246G/L316M/T342M): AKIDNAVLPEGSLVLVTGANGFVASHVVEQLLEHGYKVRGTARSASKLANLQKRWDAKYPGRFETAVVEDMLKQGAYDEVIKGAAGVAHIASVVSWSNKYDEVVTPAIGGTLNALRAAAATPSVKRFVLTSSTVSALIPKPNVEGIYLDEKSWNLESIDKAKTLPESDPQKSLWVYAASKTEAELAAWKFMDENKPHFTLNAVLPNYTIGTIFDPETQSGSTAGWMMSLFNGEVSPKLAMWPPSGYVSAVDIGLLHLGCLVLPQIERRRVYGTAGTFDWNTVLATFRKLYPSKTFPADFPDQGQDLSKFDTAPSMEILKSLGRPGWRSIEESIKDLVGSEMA

Ssal-KRED [5] = biological target: T5, Ssal-KRED (Sporobolomyces salmonicolor, UniProt Q9UUN9, F97W/L241M/M242W/Q245S/L316M/T342M); test: UV assay at […] nm, Michaelis-Menten fit; type: biochemical; conditions: apparent; NADP+/iPrOH as hydride donor; purified His-tagged enzyme; read-out: app. KM
T5 construct: N-terminal 6xHis-tag, pET28b(+), purified; recombinant from E. coli
T5 sequence (Q9UUN9 2-343 F97W/L241M/M242W/Q245S/L316M/T342M): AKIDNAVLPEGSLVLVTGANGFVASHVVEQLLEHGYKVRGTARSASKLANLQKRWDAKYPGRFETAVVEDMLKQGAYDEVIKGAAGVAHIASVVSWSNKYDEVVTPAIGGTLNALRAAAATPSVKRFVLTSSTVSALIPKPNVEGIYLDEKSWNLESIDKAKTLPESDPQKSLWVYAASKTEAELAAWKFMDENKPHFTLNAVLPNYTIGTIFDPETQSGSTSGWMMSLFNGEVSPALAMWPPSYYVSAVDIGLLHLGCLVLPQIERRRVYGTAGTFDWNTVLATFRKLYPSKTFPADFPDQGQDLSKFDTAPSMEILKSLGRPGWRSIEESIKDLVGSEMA

Ssal-KRED [6] = biological target: T6, Ssal-KRED (Sporobolomyces salmonicolor, UniProt Q9UUN9); test: UV assay at […] nm, Michaelis-Menten fit; type: biochemical; conditions: apparent; NADP+/iPrOH as hydride donor; purified His-tagged enzyme; read-out: app. KM
T6 construct: N-terminal 6xHis-tag, pET28b(+), purified; recombinant from E. coli
T6 sequence (Q9UUN9 2-343): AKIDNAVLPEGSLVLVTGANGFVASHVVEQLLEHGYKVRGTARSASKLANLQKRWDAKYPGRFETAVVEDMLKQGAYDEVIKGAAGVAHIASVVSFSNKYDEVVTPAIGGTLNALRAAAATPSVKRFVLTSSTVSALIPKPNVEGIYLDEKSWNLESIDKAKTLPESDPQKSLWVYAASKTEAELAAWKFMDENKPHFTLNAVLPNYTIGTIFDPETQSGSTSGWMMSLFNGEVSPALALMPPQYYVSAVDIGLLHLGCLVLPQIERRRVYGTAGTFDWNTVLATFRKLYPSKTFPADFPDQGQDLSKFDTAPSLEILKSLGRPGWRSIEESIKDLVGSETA

purified protein = substrate: C[C@@H]1CC(=O)c2ncnc(N3CCN(C(=O)OC(C)(C)C)CC3)c21; test: purified protein; type: biochemical, Sporobolomyces salmonicolor; conditions: apparent; NADP+/iPrOH as hydride donor; purified His-tagged enzyme; substrate saturation was not reached

With `C[C@@H]1CC(=O)c2ncnc(N3CCN(C(=O)OC(C)(C)C)CC3)c21` [1a, ketone 1a] the Km (Ssal-KRED [1]) was 163 ± 7.8 µM, the Km (Ssal-KRED [2]) was 300 ± 7.9 µM and the Km (Ssal-KRED [3]) was 144 ± 5.5 µM. It also gave a Km (Ssal-KRED [4]) of 472 ± 34.6 µM, a Km (Ssal-KRED [5]) of 175 ± 9.9 µM and a Km (Ssal-KRED [6]) of 11.9 ± 1.1 µM.

B1: Ssal-KRED (Sporobolomyces salmonicolor; A238K/F97W/L241M/L316M/M242W/Q245S/T342M/Y246G) (protein)
chain: AKIDNAVLPEGSLVLVTGANGFVASHVVEQLLEHGYKVRGTARSASKLANLQKRWDAKYPGRFETAVVEDMLKQGAYDEVIKGAAGVAHIASVVSWSNKYDEVVTPAIGGTLNALRAAAATPSVKRFVLTSSTVSALIPKPNVEGIYLDEKSWNLESIDKAKTLPESDPQKSLWVYAASKTEAELAAWKFMDENKPHFTLNAVLPNYTIGTIFDPETQSGSTSGWMMSLFNGEVSPKLAMWPPSGYVSAVDIGLLHLGCLVLPQIERRRVYGTAGTFDWNTVLATFRKLYPSKTFPADFPDQGQDLSKFDTAPSMEILKSLGRPGWRSIEESIKDLVGSEMA
notes: N-terminal 6xHis-tag, pET28b(+), purified; recombinant from E. coli
With B1 the Km (purified protein) was 1668 ± 103 µM, the kcat (purified protein) was 0.763 ± 0.04 s⁻¹ and the kcat/Km (purified protein) was 458 M⁻¹ s⁻¹.
